Measured values: publication PMC11480411, “Mucosal sugars delineate pyrazine vs pyrazinone autoinducer signaling in Klebsiella oxytoca” (Nature Communications, 2024)
Where “and” joins values, the source holds several entries; their conditions need not be identical. Equal entries are not always repeated.

How the values were obtained:
[1] = system: leup operon (leupeptin BGC) promoter in K. oxytoca ATCC 8724; assay: GFP-based transcriptional reporter for the leup operon; type: cell-based, Klebsiella oxytoca; conditions: carbohydrate screen, M9 + casamino acid + 0.4% indicated sugar, 30 °C, 24 h; for GFP fluorescence, GFP Strain + Media: leup GFP reporter strain; for GFP fluorescence, WT + Media: wildtype K. oxytoca without reporter (background)
Source text: We previously examined a panel of 84 clinical K. oxytoca isolates (including recently renamed Klebsiella michiganensis isolates) for the presence of either the leup operon or npsB, an NRPS of the tilimycin/tilivalline gene cluster. […] While the roles of tilivalline and tilimycin in hemorrhagic colitis are well studied[8],[9], the operon for leupeptin biosynthesis is “silent” in K. oxytoca under typical laboratory culture conditions (i.e., leupeptin production is undetectable). Therefore, our study commenced by exploring growth conditions required to trigger leupeptin biosynthesis in K. oxytoca. To achieve this, we generated a green fluorescent protein (GFP)-based reporter system to monitor leup transcription in K. oxytoca ATCC 8724 (recently renamed as Klebsiella michiganensis (ATCC 8724), Fig. 1a). We utilized λ-red recombineering techniques[38] to replace the first biosynthetic gene (leupA) of the leupeptin BGC with a GFP-spectinomycin resistance cassette. […] Consequently, conditions that elicit transcription of the leupeptin BGC can be monitored by GFP fluorescence intensity.
5 mL of the leupeptin reporter strain was cultured aerobically in 10 g/L of LB (Becton Dickinson), yeast extract, GAM (HiMedia Laboratories), horse liver extract (HiMedia Laboratories), malt extract (VWR), meat extract (HiMedia Laboratories), YPD (Dot Scienticifc), brain heart infusion (Becton Dickinson), porcine mucin (Sigma-Aldrich, M1778), clostridial (Becton Dickinson), TSB (VWR), or casamino acid supplemented (5 g/L, VWR) M9 minimal salts (MP Biomedicals) at 30 °C for 24 h at 250 rpm. Cultures were lysed via sonication, centrifuged, and 150 µL of the supernatants were aliquoted into black well clear bottom 96 well plates. GFP fluorescence measurements were performed on a BioTek Synergy H1 plate reader with an excitation wavelength of 488 nm and an emission wavelength of 525 nm. For the carbohydrate screen, the leupeptin reporter strain was cultured in M9 minimal medium (MPbio) supplemented with casamino acid (5 g/L, VWR) and 0.4% indicated sugar aerobically at 30 °C for 24 h at 250 rpm.

HRH2 = target: T1, HRH2 (Homo sapiens, UniProt P25021); assay: PRESTO-Tango GPCR screen and dose-response; type: cell-based; conditions: for HRH2 dose-response raw reporter signal (Fig. 5b source data): replicate wells
T1 construct: expressed in transfected cells; host or cells: HTLA cells (HEK293 line stably expressing β-arrestin-TEV and tTA-Luciferase)
T1 sequence (P25021 whole entry): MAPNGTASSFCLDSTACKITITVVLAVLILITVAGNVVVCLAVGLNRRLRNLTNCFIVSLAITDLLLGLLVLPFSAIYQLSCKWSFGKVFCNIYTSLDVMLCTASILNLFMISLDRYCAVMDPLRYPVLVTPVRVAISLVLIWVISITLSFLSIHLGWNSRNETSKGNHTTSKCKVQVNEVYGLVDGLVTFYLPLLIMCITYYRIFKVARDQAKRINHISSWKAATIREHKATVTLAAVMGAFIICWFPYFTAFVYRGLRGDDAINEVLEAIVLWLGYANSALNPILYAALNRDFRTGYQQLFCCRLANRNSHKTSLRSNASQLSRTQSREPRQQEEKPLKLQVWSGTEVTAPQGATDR
Experimental: (§1) The PRESTO-Tango analyses were performed as previously published. Briefly, HTLA cells, a HEK293 cell line that stably expresses β-arrestin-TEV and tTA-Luciferase (a kind gift from Gilad Barnea, Brown University), were plated in 96-well tissue culture plates (Eppendorf) in DMEM containing 10% FBS and 1% Penicillin/Streptomycin. One day after plating (after reaching approximately 90% confluence), 200 ng per well GPCR-Tango plasmids[37] in 20 μL DMEM were individually mixed with 400 ng polyethylenimine (Polysciences) in an equal volume of DMEM and incubated for 20 min at room temperature before adding the transfection mixture to the HTLA cells. 16-24 h after transfection, medium was replaced with 180 μL fresh DMEM containing 1% Penicillin/Streptomycin and 10 mM HEPES and 20 μL of 3 or 3-Homo to reach a final concentration of 100 μM. Supernatants were aspirated 20 h after stimulation and 50 μl per well of Bright-Glo solution (Promega) diluted 20-fold with PBS containing 20 mM HEPES was added into each well. After 15 min incubation at room temperature, luminescence was quantified using a Spectramax i3x microplate reader (Molecular Devices). Activation fold for each sample was calculated by dividing relative luminescence units (RLU) for each condition by RLUs from PBS control. Dose response curves of each chemical were performed in a similar way with varying the ligand concentration from 10^−4 M to 10^−15 M.

HRH1 = target: T2, HRH1 (Homo sapiens, UniProt P35367); assay: PRESTO-Tango GPCR screen and dose-response; type: cell-based; conditions: for HRH1 dose-response raw reporter signal (Fig. 5b source data): replicate wells
T2 construct: expressed in transfected cells; host or cells: HTLA cells (HEK293 line stably expressing β-arrestin-TEV and tTA-Luciferase)
T2 sequence (P35367 whole entry): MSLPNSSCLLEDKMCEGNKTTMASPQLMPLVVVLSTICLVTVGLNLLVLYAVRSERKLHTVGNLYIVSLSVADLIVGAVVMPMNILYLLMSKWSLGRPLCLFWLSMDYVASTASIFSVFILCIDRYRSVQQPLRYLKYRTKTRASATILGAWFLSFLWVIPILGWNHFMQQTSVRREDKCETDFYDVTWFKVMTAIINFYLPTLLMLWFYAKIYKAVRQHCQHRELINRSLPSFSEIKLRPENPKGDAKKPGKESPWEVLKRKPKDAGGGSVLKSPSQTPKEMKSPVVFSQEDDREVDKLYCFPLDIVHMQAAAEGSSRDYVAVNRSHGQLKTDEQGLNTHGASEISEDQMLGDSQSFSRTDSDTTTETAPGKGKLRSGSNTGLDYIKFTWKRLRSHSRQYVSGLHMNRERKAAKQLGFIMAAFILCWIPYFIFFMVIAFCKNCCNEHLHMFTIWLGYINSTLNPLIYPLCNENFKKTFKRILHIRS
Experimental: as §1

[2] = target: T3, histamine receptor H4 (HRH4) (Homo sapiens, UniProt Q9H3N8); assay: PRESTO-Tango GPCR screen and dose-response; type: cell-based; conditions: for HRH4 dose-response raw reporter signal (Fig. 5b source data): replicate wells
T3 construct: expressed in transfected cells; host or cells: HTLA cells (HEK293 line stably expressing β-arrestin-TEV and tTA-Luciferase)
T3 sequence (Q9H3N8 whole entry): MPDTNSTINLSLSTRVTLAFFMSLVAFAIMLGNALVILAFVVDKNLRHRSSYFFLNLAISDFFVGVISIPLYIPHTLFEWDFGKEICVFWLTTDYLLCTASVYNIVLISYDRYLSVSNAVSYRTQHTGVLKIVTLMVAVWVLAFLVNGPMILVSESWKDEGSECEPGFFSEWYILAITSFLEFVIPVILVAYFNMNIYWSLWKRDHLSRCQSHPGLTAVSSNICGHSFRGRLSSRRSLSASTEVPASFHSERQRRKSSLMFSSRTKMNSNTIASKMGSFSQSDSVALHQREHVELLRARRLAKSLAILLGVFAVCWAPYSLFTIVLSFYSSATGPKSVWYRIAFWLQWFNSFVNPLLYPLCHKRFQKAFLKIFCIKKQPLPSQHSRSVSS
Experimental: as §1

HRH3 = target: T4, HRH3 (Homo sapiens, UniProt Q9Y5N1); assay: PRESTO-Tango GPCR screen and dose-response; type: cell-based; conditions: for HRH3 dose-response raw reporter signal (Fig. 5b source data): replicate wells
T4 construct: expressed in transfected cells; host or cells: HTLA cells (HEK293 line stably expressing β-arrestin-TEV and tTA-Luciferase)
T4 sequence (Q9Y5N1 whole entry): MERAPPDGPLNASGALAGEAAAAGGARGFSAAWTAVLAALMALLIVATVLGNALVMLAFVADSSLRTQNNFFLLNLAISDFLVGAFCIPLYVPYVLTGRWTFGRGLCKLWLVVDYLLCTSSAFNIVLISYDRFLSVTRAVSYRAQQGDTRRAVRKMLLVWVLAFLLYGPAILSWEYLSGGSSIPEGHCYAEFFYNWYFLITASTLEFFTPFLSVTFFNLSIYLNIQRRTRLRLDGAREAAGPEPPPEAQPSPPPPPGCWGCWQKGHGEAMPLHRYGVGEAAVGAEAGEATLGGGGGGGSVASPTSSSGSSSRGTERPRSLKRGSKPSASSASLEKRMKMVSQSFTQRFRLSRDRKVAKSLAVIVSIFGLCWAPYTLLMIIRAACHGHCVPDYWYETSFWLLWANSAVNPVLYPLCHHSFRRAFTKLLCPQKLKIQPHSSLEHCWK
Experimental: as §1

In the case of `OC[C@H]1O[C@@H](O[C@H]2[C@H](O)[C@@H](O)C(O)O[C@@H]2CO)[C@H](O)[C@@H](O)[C@H]1O` (mixture of isomers) [Lactose], the “GFP fluorescence, GFP Strain + Media” value [1] was 5276 RFU and the “GFP fluorescence, WT + Media” value [1] was 4982 RFU.
`COC(=O)CCc1nc(Cc2ccccc2)c(CCC(=O)O)nc1Cc1ccccc1` [9-Me] was tested, and the “HRH2 dose-response raw reporter signal (Fig. 5b source data)” value (shortened to “HRH2 dose-response raw reporter signal”) (HRH2; Log(10)Conc (M) -4) was 83 and 65 and 100, the “HRH2 dose-response raw reporter signal” value (HRH2; Log(10)Conc (M) -5) was 41 and 50 and 56 and the “HRH2 dose-response raw reporter signal” value (HRH2; Log(10)Conc (M) -6) was 56 and 47 and 32. The “HRH2 dose-response raw reporter signal” value (HRH2; Log(10)Conc (M) -7) was 65 and 62 and 35, the “HRH2 dose-response raw reporter signal” value (HRH2; Log(10)Conc (M) -8) was 97 and 47 and 41 and the “HRH2 dose-response raw reporter signal” value (HRH2; Log(10)Conc (M) -9) was 41 and 35 and 77. The “HRH2 dose-response raw reporter signal” value (HRH2; Log(10)Conc (M) -10) was 38 and 80 and 41, the “HRH2 dose-response raw reporter signal” value (HRH2; Log(10)Conc (M) -11) was 91 and 32 and 56 and the “HRH2 dose-response raw reporter signal” value (HRH2; Log(10)Conc (M) -12) was 53 and 71 and 59. For the same compound, the “HRH2 dose-response raw reporter signal” value (HRH2; Log(10)Conc (M) -13) was 38 (2×) and 85, the “HRH2 dose-response raw reporter signal” value (HRH2; Log(10)Conc (M) -14) was 38 and 65 and 56 and the “HRH2 dose-response raw reporter signal” value (HRH2; Log(10)Conc (M) -15) was 32 and 41 and 83. For the same compound, the “activity towards HRH2” value (HRH2; PRESTO-Tango dose-response) was “no activity”, the “HRH1 dose-response raw reporter signal (Fig. 5b source data)” value (“HRH1 dose-response raw reporter signal” for short) (HRH1; Log(10)Conc (M) -4) was 50545 and 47748 and the “HRH1 dose-response raw reporter signal” value (HRH1; Log(10)Conc (M) -5) was 50057 and 47492. The “HRH1 dose-response raw reporter signal” value (HRH1; Log(10)Conc (M) -6) was 50434 and 47377, the “HRH1 dose-response raw reporter signal” value (HRH1; Log(10)Conc (M) -7) was 50075 and 47693 and the “HRH1 dose-response raw reporter signal” value (HRH1; Log(10)Conc (M) -8) was 49488 and 47793. For the same compound, the “HRH1 dose-response raw reporter signal” value (HRH1; Log(10)Conc (M) -9) was 48159 and 46626, the “HRH1 dose-response raw reporter signal” value (HRH1; Log(10)Conc (M) -10) was 48713 and 47646 and the “HRH1 dose-response raw reporter signal” value (HRH1; Log(10)Conc (M) -11) was 49358 and 47065. For the same compound, the “HRH1 dose-response raw reporter signal” value (HRH1; Log(10)Conc (M) -12) was 50278 and 46581, the “HRH1 dose-response raw reporter signal” value (HRH1; Log(10)Conc (M) -13) was 49874 and 48613 and the “HRH1 dose-response raw reporter signal” value (HRH1; Log(10)Conc (M) -14) was 50243 and 49745. The “HRH1 dose-response raw reporter signal” value (HRH1; Log(10)Conc (M) -15) was 45927 and 43079, the “activity towards HRH1” value (HRH1; PRESTO-Tango dose-response) was “no activity” and the “HRH4 dose-response raw reporter signal (Fig. 5b source data)” value (“HRH4 dose-response raw reporter signal” below) ([2]; Log(10)Conc (M) -5) was 427 and 460. For the same compound, the “HRH4 dose-response raw reporter signal” value ([2]; Log(10)Conc (M) -6) was 342 and 348, the “HRH4 dose-response raw reporter signal” value ([2]; Log(10)Conc (M) -7) was 348 and 321 and the “HRH4 dose-response raw reporter signal” value ([2]; Log(10)Conc (M) -8) was 410 and 321. The “HRH4 dose-response raw reporter signal” value ([2]; Log(10)Conc (M) -9) was 324 and 251, the “HRH4 dose-response raw reporter signal” value ([2]; Log(10)Conc (M) -10) was 377 and 368 and the “HRH4 dose-response raw reporter signal” value ([2]; Log(10)Conc (M) -11) was 262 and 307. For the same compound, the “HRH4 dose-response raw reporter signal” value ([2]; Log(10)Conc (M) -12) was 407 and 336, the “HRH4 dose-response raw reporter signal” value ([2]; Log(10)Conc (M) -13) was 298 and 395 and the “HRH4 dose-response raw reporter signal” value ([2]; Log(10)Conc (M) -14) was 268. For the same compound, the “HRH4 dose-response raw reporter signal” value ([2]; Log(10)Conc (M) -15) was 215 and 212, the “activity towards HRH4” value ([2]; PRESTO-Tango dose-response) was “no activity” and the “HRH3 dose-response raw reporter signal (Fig. 5b source data)” value (from here on “HRH3 dose-response raw reporter signal”) (HRH3; Log(10)Conc (M) -4) was 348 and 274 and 324. For the same compound, the “HRH3 dose-response raw reporter signal” value (HRH3; Log(10)Conc (M) -5) was 112 and 156 and 153, the “HRH3 dose-response raw reporter signal” value (HRH3; Log(10)Conc (M) -6) was 127 and 174 and 142 and the “HRH3 dose-response raw reporter signal” value (HRH3; Log(10)Conc (M) -7) was 91 and 130 and 165. The “HRH3 dose-response raw reporter signal” value (HRH3; Log(10)Conc (M) -8) was 168 and 112 and 162, the “HRH3 dose-response raw reporter signal” value (HRH3; Log(10)Conc (M) -9) was 127 and 103 and 139 and the “HRH3 dose-response raw reporter signal” value (HRH3; Log(10)Conc (M) -10) was 174 and 144 and 115. For the same compound, the “HRH3 dose-response raw reporter signal” value (HRH3; Log(10)Conc (M) -11) was 162 (2×) and 97, the “HRH3 dose-response raw reporter signal” value (HRH3; Log(10)Conc (M) -12) was 139 and 168 and 144 and the “HRH3 dose-response raw reporter signal” value (HRH3; Log(10)Conc (M) -13) was 183 and 168 and 153. For the same compound, the “HRH3 dose-response raw reporter signal” value (HRH3; Log(10)Conc (M) -14) was 183 and 85 and 150, the “HRH3 dose-response raw reporter signal” value (HRH3; Log(10)Conc (M) -15) was 94 and 115 and 112 and the “activity towards HRH3” value (HRH3; PRESTO-Tango dose-response) was “no activity”.
`O=C(CO)[C@@H](O)[C@H](O)[C@H](O)CO` [Fructose] was tested, and the “GFP fluorescence, GFP Strain + Media” value [1] was 9618 RFU and the “GFP fluorescence, WT + Media” value [1] was 6828 RFU.
